# Assay results: article PMC9516332 (Frontiers in Oncology, 2022)
# Like-named read-outs stand apart in the source and are kept apart here.
# Tests used:
# Assay in all cases: Kinase panel profiling at 1 µmol/L (MSA or IMAP), percentage inhibition
# Type in all cases: biochemical
# [1] = biological target: T1, panel of 255 wild-type kinases (Homo sapiens, UniProt O14920); details: read-out: %-inhibition at 1 µmol/L, IKKβ
# T1 sequence (O14920 1-756): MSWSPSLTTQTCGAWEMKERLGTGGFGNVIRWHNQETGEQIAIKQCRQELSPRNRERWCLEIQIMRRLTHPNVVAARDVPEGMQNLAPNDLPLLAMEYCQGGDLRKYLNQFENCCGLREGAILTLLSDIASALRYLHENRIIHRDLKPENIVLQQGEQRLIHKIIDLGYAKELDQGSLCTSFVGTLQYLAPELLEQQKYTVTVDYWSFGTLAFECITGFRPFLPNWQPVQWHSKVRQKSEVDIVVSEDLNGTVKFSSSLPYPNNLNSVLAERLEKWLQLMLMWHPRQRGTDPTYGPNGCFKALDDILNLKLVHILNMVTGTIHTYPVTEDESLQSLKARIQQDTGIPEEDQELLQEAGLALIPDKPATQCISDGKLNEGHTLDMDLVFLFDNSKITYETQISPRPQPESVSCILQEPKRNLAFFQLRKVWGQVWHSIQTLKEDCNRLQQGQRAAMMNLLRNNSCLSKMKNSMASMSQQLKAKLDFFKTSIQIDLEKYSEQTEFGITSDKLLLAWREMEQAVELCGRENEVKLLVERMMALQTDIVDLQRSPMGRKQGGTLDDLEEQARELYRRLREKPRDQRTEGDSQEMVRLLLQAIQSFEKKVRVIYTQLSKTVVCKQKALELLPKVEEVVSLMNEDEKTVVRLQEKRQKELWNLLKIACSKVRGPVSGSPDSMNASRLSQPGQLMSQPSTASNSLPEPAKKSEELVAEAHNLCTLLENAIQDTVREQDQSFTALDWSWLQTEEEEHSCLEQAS
# [2] = biological target: T2, panel of 255 wild-type kinases (Homo sapiens, UniProt P54760); details: read-out: %-inhibition at 1 µmol/L, EPHB4
# T2 sequence (P54760 16-987): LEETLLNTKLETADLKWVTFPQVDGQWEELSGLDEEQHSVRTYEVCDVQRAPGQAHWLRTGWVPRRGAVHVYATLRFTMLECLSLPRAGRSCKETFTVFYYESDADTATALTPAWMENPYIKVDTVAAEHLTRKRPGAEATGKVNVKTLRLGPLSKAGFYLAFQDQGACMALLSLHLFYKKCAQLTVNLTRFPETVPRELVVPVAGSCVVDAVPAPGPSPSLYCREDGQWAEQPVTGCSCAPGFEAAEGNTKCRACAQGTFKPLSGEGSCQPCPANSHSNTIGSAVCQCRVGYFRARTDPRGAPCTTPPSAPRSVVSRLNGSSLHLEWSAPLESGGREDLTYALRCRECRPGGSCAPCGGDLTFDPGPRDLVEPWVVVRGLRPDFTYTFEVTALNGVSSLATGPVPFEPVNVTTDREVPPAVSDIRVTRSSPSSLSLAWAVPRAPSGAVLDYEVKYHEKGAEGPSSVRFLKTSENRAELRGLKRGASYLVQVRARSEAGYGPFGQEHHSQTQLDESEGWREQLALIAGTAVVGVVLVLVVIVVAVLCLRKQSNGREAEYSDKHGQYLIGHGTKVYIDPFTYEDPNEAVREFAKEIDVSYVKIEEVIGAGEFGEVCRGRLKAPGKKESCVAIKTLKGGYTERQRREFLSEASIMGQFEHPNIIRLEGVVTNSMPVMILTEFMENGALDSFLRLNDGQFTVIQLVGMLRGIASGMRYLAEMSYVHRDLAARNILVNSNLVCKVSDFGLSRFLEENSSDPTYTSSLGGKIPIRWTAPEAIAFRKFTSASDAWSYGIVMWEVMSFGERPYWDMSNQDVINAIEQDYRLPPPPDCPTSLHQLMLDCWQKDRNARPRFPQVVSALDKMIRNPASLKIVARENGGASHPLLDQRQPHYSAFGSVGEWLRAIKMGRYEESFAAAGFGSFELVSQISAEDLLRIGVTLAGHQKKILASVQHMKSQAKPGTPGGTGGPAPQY
# [3] = biological target: T3, panel of 255 wild-type kinases (Homo sapiens, UniProt Q14164); details: read-out: %-inhibition at 1 µmol/L, IKKε
# T3 sequence (Q14164 1-716): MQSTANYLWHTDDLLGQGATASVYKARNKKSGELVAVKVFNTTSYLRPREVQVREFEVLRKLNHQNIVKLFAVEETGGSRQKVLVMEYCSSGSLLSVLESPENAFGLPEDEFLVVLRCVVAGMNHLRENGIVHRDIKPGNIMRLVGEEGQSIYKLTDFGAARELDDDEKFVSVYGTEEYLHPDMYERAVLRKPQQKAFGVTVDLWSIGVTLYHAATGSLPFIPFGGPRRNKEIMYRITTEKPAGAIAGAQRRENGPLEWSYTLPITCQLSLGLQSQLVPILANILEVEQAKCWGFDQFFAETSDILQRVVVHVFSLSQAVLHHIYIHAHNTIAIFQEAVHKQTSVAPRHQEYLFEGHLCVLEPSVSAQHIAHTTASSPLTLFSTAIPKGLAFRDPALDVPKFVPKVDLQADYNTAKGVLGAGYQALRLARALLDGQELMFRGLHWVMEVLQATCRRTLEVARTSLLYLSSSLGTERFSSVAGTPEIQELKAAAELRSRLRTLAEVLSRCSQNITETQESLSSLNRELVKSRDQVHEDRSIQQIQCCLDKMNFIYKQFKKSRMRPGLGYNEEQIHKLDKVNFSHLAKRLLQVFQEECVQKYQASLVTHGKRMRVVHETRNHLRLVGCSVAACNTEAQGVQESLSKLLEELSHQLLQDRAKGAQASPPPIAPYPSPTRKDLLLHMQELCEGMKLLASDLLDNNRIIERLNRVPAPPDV
# [4] = biological target: panel of 255 wild-type kinases (Homo sapiens, UniProt Q9Y2H1); details: read-out: %-inhibition, NDR2
# [5] = tested on: panel of 255 wild-type kinases
# [6] = kinase IKKβ, 1 µmol/L single concentration
# [7] = kinase EPHB4, 1 µmol/L single concentration
# [8] = kinase IKKε, 1 µmol/L single concentration
# [9] = NDR2, 1 µmol/L single concentration
# [10] = kinase FYN [isoform b], 1 µmol/L single concentration
# [11] = kinase LYNb, 1 µmol/L single concentration
# [12] = kinase PKCβ2, 1 µmol/L single concentration
# [13] = kinase SRM, 1 µmol/L single concentration
SMILES,"inhibition at 1 µM [1, 6] [%]","inhibition at 1 µM [2, 7] [%]","inhibition at 1 µM [3, 8] [%]","inhibition at 1 µM [4, 9] [%]","%-inhibition at 1 µmol/L, FYN [isoform b] [5, 10] [%]","%-inhibition at 1 µmol/L, LYNb [5, 11] [%]","%-inhibition at 1 µmol/L, PKCβ2 [5, 12] [%]","%-inhibition at 1 µmol/L, SRM [5, 13] [%]",inhibition at 1 µM [1] [%],inhibition at 1 µM [2] [%],inhibition at 1 µM [3] [%],inhibition at 1 µM [4] [%],"%-inhibition at 1 µmol/L, FYN [isoform b] [5] [%]","%-inhibition at 1 µmol/L, LYNb [5] [%]","%-inhibition at 1 µmol/L, PKCβ2 [5] [%]","%-inhibition at 1 µmol/L, SRM [5] [%]",inhibition of profiled kinases in biochemical assays ([5]; 1 µmol/L inhibitor),number of the 255 profiled kinases inhibited by more than 50% [5],kinases inhibited by more than 50% ([5]; 1 µmol/L inhibitor)
Cc1nc(NC(=O)N2CCC[C@H]2C(N)=O)sc1-c1ccnc(C(C)(C)C(F)(F)F)c1 [alpelisib],0.111,3.19,-4.31,-2,-5.63,4.67,2.32,1,,,,,,,,,,,
Cn1cc(-c2cc3c(N4CCN(c5ncc([C@@](C)(N)c6ccc(F)cc6)cn5)CC4)ncnn3c2)cn1 [avapritinib],0.049,34,-0.262,-2.84,3,83,-0.278,0.441,,,,,,,,,,,
Cn1cnc2c(F)c(Nc3ccc(Br)cc3F)c(C(=O)NOCCO)cc21 [binimetinib],-4,-0.0401,-3,-1.45,4,4.22,-1.88,-1.11,,,,,,,,,,,
CNC(=O)c1ccc(-c2cnc3ncc(Cc4ccc5ncccc5c4)n3n2)cc1F [capmatinib],,,,,,,,,-0.588,-1.2,-5.46,-5.51,-1.2,0.305,-2,-0.916,,,
COc1cc2ncnc(Nc3ccc(F)c(Cl)c3)c2cc1NC(=O)/C=C/CN1CCCCC1 [dacomitinib],6,62,-2.11,-1.58,37,74,5.44,1.79,,,,,,,,,,,
C[C@H](Nc1ncnc2nc[nH]c12)c1cc2cccc(Cl)c2c(=O)n1-c1ccccc1 [duvelisib],0.466,3.24,-0.56,-0.151,0.6,3,1.61,4,,,,,,,,,did not inhibit FLT3 or any of the other profiled tyrosine or serine/threonine kinases,,
COC(=O)N[C@@H](C)CNc1nccc(-c2cn(C(C)C)nc2-c2cc(Cl)cc(NS(C)(=O)=O)c2F)n1 [encorafenib],0.644,-0.672,-3.36,5,4.62,4,2.15,85,,,,,,,,,,,
CN1CCN(c2ccc(C(=O)Nc3n[nH]c4ccc(Cc5cc(F)cc(F)c5)cc34)c(NC3CCOCC3)c2)CC1 [entrectinib],-0.451,73,7,51,,,,,,,,,95,72,14,72,,75,
CCc1nc(C(N)=O)c(Nc2ccc(N3CCC(N4CCN(C)CC4)CC3)c(OC)c2)nc1NC1CCOCC1 [gilteritinib],5.66,74,10,66,86,84,31,23,,,,,,,,,,,
CCN1CCN(c2ccc(Nc3cc(N(C)C(=O)Nc4c(Cl)c(OC)cc(OC)c4Cl)ncn3)cc2)CC1 [infigratinib],0.304,-0.369,-6,-3.19,43,84,1.5,-2.75,,,,,,,,,,,
O=C(Nc1cnn2ccc(N3CCC[C@@H]3c3cc(F)ccc3F)nc12)N1CC[C@H](O)C1 [larotrectinib],-1.76,-2.17,7,-4.33,1.64,1.48,-2,-3.2,,,,,,,,,,,"TRKA, TRKB, TRKC, ROS1, and ACK1"
C[C@H]1Oc2cc(cnc2N)-c2c(nn(C)c2C#N)CN(C)C(=O)c2ccc(F)cc21 [lorlatinib],-0.377,43,-3.78,2.18,4,22,4,59,,,,,,,,,,,
CCN1C(=O)N(c2c(F)c(OC)cc(OC)c2F)Cc2cnc3[nH]c(CN4CCOCC4)cc3c21 [pemigatinib],-1.22,-3,8.49,-1.83,14,64,-1.57,-3.44,,,,,,,,,,,
FC(F)(F)c1ccc(CNc2ccc(Cc3c[nH]c4ncc(Cl)cc34)cn2)cn1 [pexidartinib],5,-2,-1.81,8,1.3,19,3.47,0.409,,,,,,,,,,,
